According to the NIST ThermoML archive (doi:10.1016/j.jct.2015.01.014):

Settings: Liquid, Transpiration method

OCCCO [propan-1,3-diol]
Settings	vapor or sublimation pressure [kPa]
292.5 K	0.00167
296.4 K	0.00239
300.4 K	0.00346
306.3 K	0.00584
338.7 K	0.08145
344.3 K	0.1208
346.4 K	0.139
